In patent publication US11400080B2, “Use of sirolimus to treat exudative age-related macular degeneration with persistent edema” (Santen Pharmaceutical Co., Ltd., priority 2016, dated 2022):

Experiments:
[1] = system: exudative AMD with persistent intraretinal or subretinal edema despite previous intravitreal anti-VEGF treatment; assay: Example 1: randomized, subject-masked trial of intravitreal sirolimus versus anti-VEGF (OCT CST and BCVA); format: in vivo, human; conditions: baseline to months 3-6, subjects who completed the study through month 6, FIG. 2 and FIG. 4
Text: This study was a single-center, randomized, subject-masked trial over the course of six months with eight scheduled visits. Study Population. Thirty human patients, who were 50 years of age or older at baseline were recruited according to the following inclusion and exclusion criteria. If both eyes met all of the inclusion/exclusion criteria the eye with the worse BCVA at baseline was selected as the study eye. If both eyes met all of the inclusion/exclusion criteria and BCVA values were identical for both eyes, the right eye was selected as the study eye. Study Treatment (Group 1). […] Sham intravitreal injection given at month 1, month 3 and month 5. […] Intravitreal injection of anti-VEGF per patient/investigator choice (pegaptanib, aflibercept, bevacizumab or ranibizumab) given at baseline and thereafter monthly per clinical criteria. Sham intravitreal injections given when retreatment criterion was not met at month 1 or any later visit. […] Both intraocular pressure and the perfusion of the optic nerve head were monitored and managed appropriately after injection. […] The primary efficacy endpoint includes change in edema from baseline to month 6 as measured by CST on Heidelberg OCT. change in BCVA from baseline to month 6; Continuous variables will be summarized with means and standard deviations and medians with min and max values and categorical variables with frequencies and percentages. […]

[2] = system: persistent edema due to neovascular AMD; assay: Example 2: randomized, subject-masked trial of intravitreal sirolimus plus anti-VEGF (aflibercept) versus anti-VEGF alone (OCT CST and BCVA); format: in vivo, human
Text: This study was a single-center, randomized, subject-masked trial over the course of […] with eleven scheduled visits. Study Population. Twenty human patients, who were 50 years of age or older at baseline were recruited according to the following inclusion and exclusion criteria. If both eyes met all of the inclusion/exclusion criteria the eye with the best potential for visual improvement (worse BCVA) at baseline was selected as the study eye. If both eyes met all of the inclusion/exclusion criteria and BCVA values were identical for both eyes, the right eye was selected as the study eye. Study Treatment (Group 1). […] Intravitreal injections of EYL (aflibercept) given at weeks 1, 8, 16, 24 and 32. […] Comparator Treatment (Group 2). Intravitreal injection of EYL (aflibercept) given at baseline and weeks 8, 16, 24 and 32. […] Both intraocular pressure and the perfusion of the optic nerve head were monitored and managed appropriately after injection. […] Retreatment Criteria: Subjects in both groups received retreatment (or sham) at each scheduled visit as long as continued subretinal edema, intraretinal edema or active choroidal neovascularization was present. change in edema from baseline to week 36 as measured by CST on Heidelberg OCT. change in BCVA from baseline to week 36; and number of injections required to control choroidal neovascularization based on volume of subretinal fluid.

Compound	average change in edema from baseline (central subfield thickness, CST, by OCT) [1]	subjects in whom the need for anti-VEGF treatment to control edema was reduced ([2]; combination group, ten patients, EYL injections deferred (sham)) [%]	improvement in visual acuity (BCVA) ([2]; change from baseline, FIG. 5)
CO[C@H]1C[C@@H]2CC[C@@H](C)[C@@](O)(O2)C(=O)C(=O)N2CCCC[C@H]2C(=O)O[C@H]([C@H](C)C[C@@H]2CC[C@@H](O)[C@H](OC)C2)CC(=O)[C@H](C)/C=C(\C)[C@@H](O)[C@@H](OC)C(=O)[C@H](C)C[C@H](C)/C=C/C=C/C=C/1C [sirolimus]	−30 to −40	40	
aflibercept [EYL]			+0.8 letters
